Data as given in patent US4241083A, “Germicidal composition for agriculture and horticulture” (priority 1978, dated 1980).

Key:
Sphaerotheca fuliginea = test: Prevention effect for powdery mildew on cucumbers (Ex. 20, 21); type: in vivo; details: Table 5; for Germicidal damage to seedlings: cucumber seedlings; for Percentage of leaf area with disease spots / Percentage of leaves attacked with the disease / Prevention value per leaf (Perfect prevention = 100): third and ninth days, read fifteenth day after inoculation
Procedure: The prevention effect for powdery mildew on cucumbers caused by Sphaerotheca fuliginea was examined in the following manner.
Cucumber seedlings (bifoliate age) of Tokiwa Hikari No. 3 (p type) variety planted in sections of two rows of three were inoculated with the above germ by brushing on spores from a cucumber leaf attacked with powdery mildew. […]
The leaf area on which powdery mildew spots appeared was measured on the fifteenth day after the seedlings were inoculated with the germ. The spotted area is expresses as a prevention value.
The same experiment as Example 20 was carried out except that isopropyl 2-(2-hydroxyethylamino)-3-benzoyl-propionate hydrochloride was used instead of ethyl 2-(2-hydroxyethylamino)-3-benzoylpropionate hydrochloride.

Cladosporium cucumerium = test: Prevention effect for cucumber scab (Ex. 19); type: in vivo; details: for Germicidal damage to seedlings: cucumber seedlings; for Percentage of leaf area with disease spots / Percentage of leaves attacked with the disease / Prevention value per leaf (Perfect prevention = 100): eighth day after spraying
Text: The prevention effect for cucumber scab was examined in the following manner.
An aqueous solution of ethyl 2-(2-hydroxyethylamino)-3-benzoylpropionate hydrochloride (2500 ppm or 5000 ppm) was sprayed on cucumber seedlings (bifoliate age) of Tokiwa Hikari No. 3 (p type) variety which were planted in sections in two rows of three.
After air-drying the seedlings, a spore suspention of Cladosporium cucumerium was inoculated on the test seedlings by means of a glass sprayer. The inoculated seedlings were kept at 18°-20° C. for four days in an inoculation box and then allowed to stand in a glass chamber.
The leaf area on which scab spots appeared was measured on the eighth day after spraying the aqueous germicide solution. The spotted area is expressed as a prevention value.

[1] = test system: Colletotrichum lagenarium; test: Prevention effect for anthracnose on cucumber (Ex. 18); type: in vivo; details: for Germicidal damage to seedlings: cucumber seedlings; for Number of disease spots per leaf / Percentage of leaves attacked with the disease / Prevention value per leaf (Perfect prevention = 100): sixth day after spraying
Text: The prevention effect for anthracnose on cucumber was investigated in the following manner.
An aqueous solution of ethyl 2-(2-hydroxyethylamino)-3-benzoylpropionate hydrochloride (2500 ppm and 5000 ppm) was sprayed on cucumber seedlings (bifoliate age) of Tokiwa Hikari No. 3 (p type) variety which were planted in sections of two rows of three.
After air-drying the seedlings, a spore suspention of Colletotrichum lagenarium was inoculated on the test seedlings by means of a glass sprayer. The inoculated seedlings were kept at 20°-22° C. for four days in the inoculation box, and then allowed to stand in a glass chamber.
The number of disease spots of anthracnose that appeared on the cucumber leaves was measured on the sixth day after spraying the germicidal aqueous solution. The number of spots can be used to calculate a prevention value. Using the number of spots that appeared per control leaf as a reference, the relative number per hundred of spots prevented by the experimental germicide is the prevention value. Thus a perfectly preventive germicide has a prevention value of 100 and the control has a prevention value of 0.

Alternaria solani = test: Growth of germs on potato dextrose-agar medium containing the compound (Ex. 6); type: cell-based; set-up: key: +++: extremely much growth; ++: much growth; +: a little growth; -: no growth; details: two weeks, 25° C.
Procedure: (§1) Ethyl 2-(2-hydroxyethylamino)-3-benzoylpropionate hydrochloride was added to potato dextrose-agar culture medium in the concentration indicated in Table 1 and the suspensions of various kinds of germs were dropped on the culture medium. After incubation of the germs for two weeks in thermostat (25° C.), the growing conditions were observed.
(§2) In Table 1, +++, ++, + and - represent "extremely much growth", "much growth", "a little growth" and "no growth" respectively.

Phomopsis vexans = test: Growth of germs on potato dextrose-agar medium containing the compound (Ex. 11); type: cell-based; set-up: key: +++: extremely much growth; ++: much growth; +: a little growth; -: no growth; details: two weeks, 25° C.
Procedure: as §1, §2

CCOC(=O)C(CC(=O)c1ccccc1)NCCO.Cl (stereo not shown) [Ethyl 2-(2-hydroxyethylamino)-3-benzoylpropionate hydrochloride]
Germicidal damage to seedlings (Sphaerotheca fuliginea; 2500 ppm): none
Percentage of leaf area with disease spots (Sphaerotheca fuliginea; 2500 ppm): 0%
Percentage of leaves attacked with the disease (Sphaerotheca fuliginea; 2500 ppm): 0%
Prevention value per leaf (Perfect prevention = 100) (Sphaerotheca fuliginea; 2500 ppm): 100
Germicidal damage to seedlings (Sphaerotheca fuliginea; 5000 ppm): none
Percentage of leaf area with disease spots (Sphaerotheca fuliginea; 5000 ppm): 0%
Percentage of leaves attacked with the disease (Sphaerotheca fuliginea; 5000 ppm): 0%
Prevention value per leaf (Perfect prevention = 100) (Sphaerotheca fuliginea; 5000 ppm): 100
Germicidal damage to seedlings (Cladosporium cucumerium; 2500 ppm): none
Percentage of leaf area with disease spots (Cladosporium cucumerium; 2500 ppm): 25.0%
Percentage of leaves attacked with the disease (Cladosporium cucumerium; 2500 ppm): 100%
Prevention value per leaf (Perfect prevention = 100) (Cladosporium cucumerium; 2500 ppm): 63.4
Germicidal damage to seedlings (Cladosporium cucumerium; 5000 ppm): none
Percentage of leaf area with disease spots (Cladosporium cucumerium; 5000 ppm): 20.0%
Percentage of leaves attacked with the disease (Cladosporium cucumerium; 5000 ppm): 100%
Prevention value per leaf (Perfect prevention = 100) (Cladosporium cucumerium; 5000 ppm): 70.7
Germicidal damage to seedlings ([1]; 2500 ppm): none
Number of disease spots per leaf ([1]; 2500 ppm): 2.83
Percentage of leaves attacked with the disease ([1]; 2500 ppm): 83.3%
Prevention value per leaf (Perfect prevention = 100) ([1]; 2500 ppm): 88.0
Germicidal damage to seedlings ([1]; 5000 ppm): none
Number of disease spots per leaf ([1]; 5000 ppm): 2.92
Percentage of leaves attacked with the disease ([1]; 5000 ppm): 91.7%
Prevention value per leaf (Perfect prevention = 100) ([1]; 5000 ppm): 87.6
growing conditions (growth of germ) (Alternaria solani; 10 ppm): ++
growing conditions (growth of germ) (Alternaria solani; 20 ppm): -
growing conditions (growth of germ) (Alternaria solani; 50 ppm): -
growing conditions (growth of germ) (Alternaria solani; 100 ppm): -
growing conditions (growth of germ) (Alternaria solani; 200 ppm): -
growing conditions (growth of germ) (Phomopsis vexans; 10 ppm): +
growing conditions (growth of germ) (Phomopsis vexans; 20 ppm): -
growing conditions (growth of germ) (Phomopsis vexans; 50 ppm): -
growing conditions (growth of germ) (Phomopsis vexans; 100 ppm): -
growing conditions (growth of germ) (Phomopsis vexans; 200 ppm): -
